Series [1] can be described thus: repeated application to normal skin of adults without acne. As to conditions: applied repeatedly to face and arm, 2 adults, several days.
Series [2] is described as follows: penetration of PG into human nails. As to conditions: 30 minutes after application of a thin layer to nail surface, adults.
In series [3] the test system is wart. As to conditions: conventional treatment; cited from earlier work.

We go through two molecules from patent publication US8513225B2, “Composition and method for topical treatment of skin lesions” (Winlind Skincare, LLC, priority 2008, dated 2013).

Each structure is given as a SMILES string.

As to `CC(O)CO` (stereo not drawn) [100% PG, propylene glycol], in series [1], the “adverse reactions on normal skin” value is recorded as “No adverse reactions were observed”. The absorption into nails result in series [2] is “virtually no PG can be found on the nail surface”.

Regarding `O=C(O)c1ccccc1O` [high strength salicylic acid, salicylic acid], the “time for wart removal process” value in series [3] is 6 to 12 weeks.
